# Laboratory results as given in paper PMC6566410, “Novel Diamide-Based Benzenesulfonamides as Selective Carbonic Anhydrase IX Inhibitors Endowed with Antitumor Activity: Synthesis, Biological Evaluation and In Silico Insights” (International Journal of Molecular Sciences, 2019).
# Experiments:
# Test in all cases: NCI one-dose SRB assay
# Assay type in all cases: cell-based
# 786-0 = conditions: Homo sapiens, 786-0 (Renal Cancer), 1.00E-5 Molar, read-out: Growth Percent
# Protocol: (§1) First, all diamide-based benzenesulfonamides herein reported 5a–h were screened for their antitumor activity at one dose (10^−5 M) assay against a panel of sixty cancer cell lines through the National Cancer Institute (NCI) Developmental Therapeutic Program (www.dtp.nci.nih.gov), according to US-NCI protocol. The cell growth and cell viability were evaluated using the sulforhodamine B (SRB) colorimetric assay.
# (§2) This assay was carried out according to the protocol of the Drug Evaluation Branch, NCI, Bethesda. The cell growth and cell viability were evaluated using the sulforhodamine B (SRB) colorimetric assay, as reported earlier.
# A498 = conditions: Homo sapiens, A498 (Renal Cancer), 1.00E-5 Molar, read-out: Growth Percent
# Protocol: as §1, §2
# A549/ATCC = conditions: Homo sapiens, A549/ATCC (Non-Small Cell Lung Cancer), 1.00E-5 Molar, read-out: Growth Percent
# Protocol: as §1, §2
# CCRF-CEM = conditions: Homo sapiens, CCRF-CEM (Leukemia), 1.00E-5 Molar, read-out: Growth Percent
# Protocol: as §1, §2
# DU-145 = conditions: Homo sapiens, DU-145 (Prostate Cancer), 1.00E-5 Molar, read-out: Growth Percent
# Protocol: as §1, §2
# EKVX = conditions: Homo sapiens, EKVX (Non-Small Cell Lung Cancer), 1.00E-5 Molar, read-out: Growth Percent
# Protocol: as §1, §2
# HCC-2998 = conditions: Homo sapiens, HCC-2998 (Colon Cancer), 1.00E-5 Molar, read-out: Growth Percent
# Protocol: as §1, §2
# HCT-116 = conditions: Homo sapiens, HCT-116 (Colon Cancer), 1.00E-5 Molar, read-out: Growth Percent
# Protocol: as §1, §2
# HOP-62 = conditions: Homo sapiens, HOP-62 (Non-Small Cell Lung Cancer), 1.00E-5 Molar, read-out: Growth Percent
# Protocol: as §1, §2
# K-562 = conditions: Homo sapiens, K562, K-562 (Leukemia), 1.00E-5 Molar, read-out: Growth Percent
# Protocol: as §1, §2
# LOX IMVI = conditions: Homo sapiens, LOX IMVI (Melanoma), 1.00E-5 Molar, read-out: Growth Percent
# Protocol: as §1, §2
# M14 = conditions: Homo sapiens, M14 (Melanoma), 1.00E-5 Molar, read-out: Growth Percent
# Protocol: as §1, §2
# MDA-MB-231/ATCC = conditions: Homo sapiens, MDA-MB-231/ATCC (Breast Cancer), 1.00E-5 Molar, read-out: Growth Percent
# Protocol: as §1, §2
# MDA-MB-435 = conditions: Homo sapiens, MDA-MB-435 (Melanoma), 1.00E-5 Molar, read-out: Growth Percent
# Protocol: as §1, §2
# NCI-H23 = conditions: Homo sapiens, NCI-H23 (Non-Small Cell Lung Cancer), 1.00E-5 Molar, read-out: Growth Percent
# Protocol: as §1, §2
# NCI-H322M = conditions: Homo sapiens, NCI-H322M (Non-Small Cell Lung Cancer), 1.00E-5 Molar, read-out: Growth Percent
# Protocol: as §1, §2
# NCI-H522 = conditions: Homo sapiens, NCI-H522 (Non-Small Cell Lung Cancer), 1.00E-5 Molar, read-out: Growth Percent
# Protocol: as §1, §2
# NCI/ADR-RES = conditions: Homo sapiens, NCI/ADR-RES (Ovarian Cancer), 1.00E-5 Molar, read-out: Growth Percent
# Protocol: as §1, §2
# OVCAR-4 = conditions: Homo sapiens, OVCAR-4 (Ovarian Cancer), 1.00E-5 Molar, read-out: Growth Percent
# Protocol: as §1, §2
# OVCAR-5 = conditions: Homo sapiens, OVCAR-5 (Ovarian Cancer), 1.00E-5 Molar, read-out: Growth Percent
# Protocol: as §1, §2
# RXF 393 = conditions: Homo sapiens, RXF 393 (Renal Cancer), 1.00E-5 Molar, read-out: Growth Percent
# Protocol: as §1, §2
# SF-268 = conditions: Homo sapiens, SF-268 (CNS Cancer), 1.00E-5 Molar, read-out: Growth Percent
# Protocol: as §1, §2
# SF-295 = conditions: Homo sapiens, SF-295 (CNS Cancer), 1.00E-5 Molar, read-out: Growth Percent
# Protocol: as §1, §2
# SF-539 = conditions: Homo sapiens, SF-539 (CNS Cancer), 1.00E-5 Molar, read-out: Growth Percent
# Protocol: as §1, §2
# SK-MEL-28 = conditions: Homo sapiens, SK-MEL-28 (Melanoma), 1.00E-5 Molar, read-out: Growth Percent
# Protocol: as §1, §2
# SK-MEL-2 = conditions: Homo sapiens, SK-MEL-2 (Melanoma), 1.00E-5 Molar, read-out: Growth Percent
# Protocol: as §1, §2
# SK-MEL-5 = conditions: Homo sapiens, SK-MEL-5 (Melanoma), 1.00E-5 Molar, read-out: Growth Percent
# Protocol: as §1, §2
# SN12C = conditions: Homo sapiens, SN12C (Renal Cancer), 1.00E-5 Molar, read-out: Growth Percent
# Protocol: as §1, §2
# SNB-19 = conditions: Homo sapiens, SNB-19 (CNS Cancer), 1.00E-5 Molar, read-out: Growth Percent
# Protocol: as §1, §2
# SW-620 = conditions: Homo sapiens, SW-620 (Colon Cancer), 1.00E-5 Molar, read-out: Growth Percent
# Protocol: as §1, §2
# T-47D = conditions: Homo sapiens, T47D, T-47D (Breast Cancer), 1.00E-5 Molar, read-out: Growth Percent
# Protocol: as §1, §2
SMILES,activity at 10 µM (786-0),activity at 10 µM (A498),activity at 10 µM (A549/ATCC),activity at 10 µM (CCRF-CEM),activity at 10 µM (DU-145),activity at 10 µM (EKVX),activity at 10 µM (HCC-2998),activity at 10 µM (HCT-116),activity at 10 µM (HOP-62),activity at 10 µM (K-562),activity at 10 µM (LOX IMVI),activity at 10 µM (M14),activity at 10 µM (MDA-MB-231/ATCC),activity at 10 µM (MDA-MB-435),activity at 10 µM (NCI-H23),activity at 10 µM (NCI-H322M),activity at 10 µM (NCI-H522),activity at 10 µM (NCI/ADR-RES),activity at 10 µM (OVCAR-4),activity at 10 µM (OVCAR-5),also measured
"NS(=O)(=O)c1ccc(NC(=O)C(=Cc2ccc(Cl)cc2)NC(=O)c2ccccc2)cc1 [Compound 5a, N-(1-(4-Chlorophenyl)-3-oxo-3-((4-sulfamoylphenyl)amino)prop-1-en-2-yl)benzamide]",95.9%,104%,101%,107%,107%,99.5%,103%,93.9%,91.9%,109%,97%,102%,105%,98.7%,103%,108%,90.9%,104%,95.5%,105%,activity at 10 µM (RXF 393): 103%; activity at 10 µM (SF-268): 96%; activity at 10 µM (SF-295): 104%; activity at 10 µM (SF-539): 98.8%; activity at 10 µM (SK-MEL-28): 110%; activity at 10 µM (SK-MEL-2): 102%; activity at 10 µM (SK-MEL-5): 100%; activity at 10 µM (SN12C): 104%; activity at 10 µM (SNB-19): 103%; activity at 10 µM (SW-620): 100%; activity at 10 µM (T-47D): 95.5%
"COc1ccc(C=C(NC(=O)c2ccccc2)C(=O)Nc2ccc(S(N)(=O)=O)cc2)c(OC)c1 [Compound 5f, N-(1-(2,4-Dimethoxyphenyl)-3-oxo-3-((4-sulfamoylphenyl)amino)prop-1-en-2-yl)benzamide]",103%,111%,94.9%,107%,111%,97.3%,110%,104%,117%,116%,99.8%,111%,105%,97%,101%,102%,88.2%,109%,104%,106%,activity at 10 µM (RXF 393): 108%; activity at 10 µM (SF-268): 114%; activity at 10 µM (SF-295): 110%; activity at 10 µM (SF-539): 98.2%; activity at 10 µM (SK-MEL-28): 109%; activity at 10 µM (SK-MEL-2): 102%; activity at 10 µM (SK-MEL-5): 102%; activity at 10 µM (SN12C): 94.8%; activity at 10 µM (SNB-19): 102%; activity at 10 µM (SW-620): 107%; activity at 10 µM (T-47D): 101%
